# Test results reported in patent US5028440A, “Method of raising meat producing animals to increase lean tissue development” (Iowa State University Research Foundation, Inc., priority 1990, dated 1991).
# “Also recorded” adds a separate entry of the source.
# Columns and labels:
# lambs [1] = experiment: Feeding of HMB to Lambs--Trial 1; assay type: in vivo
# Description: Animals and Experimental Design. Three sets of twin lambs were housed individually in fiberglass pens. Animals were randomly assigned to control or HMB diets, using Ca-HMB as the feed additive at a level of 0.5% of the basal diet.
# Composition of Basal Diet Fed to All Sheep.
# (§1) Trace mineral & vitamin premix
# lambs [2] = experiment: Feeding of HMB to Lambs--Trial 2; assay type: in vivo
# Description: Animals and Experimental Design. Twenty-two lambs were housed individually in fiberglass pens (1.15 m^2) and randomly assigned to control or HMB diets. The control had nothing added to the diet while the HMB animals had 1 g of CaHMB supplemented to their diets each day. At the beginning of the experiment animals were weighed and ultrasound measurement made of the longissimus area and the amount of fat over the longissimus muscle. These measurements were made over the 12th rib area. Feed consumption was monitored. At the end of the experiment animals were weighed, feed consumption measured and the longissimus area and fat thickness measured again with the ultrasound apparatus. The gain in longissimus area and backfat were calculated from the initial value.
# Composition of Basal Diet Fed to All Sheep
# as §1
# [3] = Stability of KIC or HMB in the rumen (incubation in rumen fluid); assay type: in vitro ADME, steer; settings: for KIC or HMB in rumen fluid: 39° C.
# Method: Rumen fluid was collected from a fistulated steer. After filtration and dilution (1:4) with an artificial saliva, 25ml of the solution was added to 50ml plastic tubes. Each tube was fitted with a one-way valve to allow gases to escape while not allowing air into the tube. Each tube was then gassed with CO2 and incubated at 39° C. After 30 min a solution of KIC or HMB was added to the tube in concentrations to simulate what would be present in the rumen of an animal consuming 0.05% of the diet as KIC or HMB. It was estimated that a 50 uM concentration would be attained in this case. At timed intervals 50 ul samples of this rumen fluid were taken and analyzed for KIC and HMB.
# domestic animals [4] = experiment: Growth metabolism of domestic animals, HMB compared with KIC (summary statement); settings: in vivo
# male leghorn chicks = experiment: Feeding HMB to Poultry: growth, feed efficiency and breast muscle of chicks; assay type: in vivo; settings: 0.04% of the diet; for Feed/gain / Breast muscle / Gain: 5 week data; for Feed/gain: control 2.30; for Breast muscle: control 2.84; for Gain: control 222; for Breast muscle, change from control / Feed/gain, change from control: ** (HMB) significant at p < .02
# Method: (§2) To compare KIC and HMB as growth promotants, young male leghorn chicks were allotted to 12 battery (wire mess floors) pens consisting of 10 birds each. Treatments of control, HMB (0.04% of the diet) and KIC (0.04% of the diet) were assigned to the pens. Feed consumption was measured during the 5 week experiment. During week 2 of the experiment chicks were injected with 50 ul of a 20% suspension of pig red blood cells intraperitoneally.
# (§3) Chicks were fed a diet adequate in all nutrients for leghorns of this age. HMB was a supplement to this diet at 0.04% of the diet (w/w).
# (§4) At the end of the 5 week experiment chicks were decapitated and serum collected for pig red blood cells antibody titer determination. Titers to red blood cells were evaluated by a microtiter agglutination test (Kuhlman, et al.). Also, the Pectoralis major muscle (the major breast muscle) was dissected and weighed as a measure of muscle growth.
# pig red blood cells = experiment: Pig red blood cell antibody titer in chicks (microtiter agglutination test); assay type: in vivo, chicks (male leghorn); settings: 0.04% of the diet, 5 weeks; for Red blood cell titer, change from control: ** (HMB) significant at p < .02; for Red blood cell titer: pig red blood cells injected week 2, control 1.57
# Method: as §2, §3, §4
# [5] = Hygroscopicity of HMB salts; assay type: physicochemical
# domestic animals [6] = settings: cited from earlier work
# [7] = feeds for cattle and sheep; background statement; cited from earlier work
# [8] = KIC fed as replacement for leucine; cited from earlier work
# [9] = 0 min after addition, rumen fluid diluted 1:4 with artificial saliva, initial KIC could only be estimated
# [10] = 15 min after addition, rumen fluid diluted 1:4
# [11] = 30 min after addition, rumen fluid diluted 1:4
# [12] = 60 min after addition, rumen fluid diluted 1:4
# [13] = 240 min after addition, rumen fluid diluted 1:4
# [14] = 480 min after addition, rumen fluid diluted 1:4
smiles,measurement,setting,value
"CC(C)(O)CC(=O)O [HMB, β-hydroxy-β-methyl butyric acid]",Longissimus area,"lambs [1]; Ca-HMB 0.5% of the basal diet, control 2.1",2.3 sq. in.
same,Renal Fat %,"lambs [1]; Ca-HMB 0.5% of the basal diet, control 2.42",1.90 % of animal live weight
same,Feed/gain,"lambs [1]; Ca-HMB 0.5% of the basal diet, control 3.89",3.60
same,Back Fat (fat thickness over 12th rib),"lambs [1]; Ca-HMB 0.5% of the basal diet, control .21",.12 in
same,Average daily gain,"lambs [1]; Ca-HMB 0.5% of the basal diet, control .287",.296 kg/day
same,lean tissue and fat growth (in words),"lambs [1]; limited study, vs controls",appeared to stimulate growth of lean tissues at the expense of fat
same,"% change due to HMB, Average daily gain",lambs [1]; vs controls,+3%
same,"% change due to HMB, Feed/Gain",lambs [1]; vs controls,-7%
same,"% change due to HMB, Longissimus area",lambs [1]; vs controls,+10%
same,"% change due to HMB, Back Fat","lambs [1]; vs controls, *P < 0.5",-43%
same,"% change due to HMB, Renal Fat","lambs [1]; vs controls, *P < 0.5",-22%
same,Feed/gain,"lambs [2]; 1 g CaHMB per day, control 4.41",4.28
same,Total gain,"lambs [2]; 1 g CaHMB per day, lambs from 60 lbs. to 100 lbs., control 38.5",40.5 lbs
same,Loin area gain,"lambs [2]; 1 g CaHMB per day, ultrasound, control 2.08",3.34 cm2
same,Back fat gain,"lambs [2]; 1 g CaHMB per day, ultrasound, control .27",.19 cm
same,"% Change, Feed/gain",lambs [2]; vs control,-3%
same,"% Change, Total gain",lambs [2]; vs control,+6%
same,performance and lean vs. fat gain (in words),lambs [2]; vs control,increases preformance and increases lean vs. fat gain
same,"% Change, Back fat gain","lambs [2]; vs control, **P < .02 level",-30%
same,"% Change, Loin area gain","lambs [2]; vs control, **P < .02 level",60%
same,stability in rumen environment (in words),[3],not being subject to appreciable rumen destruction; also recorded: not subject to significant rumen destruction; also recorded: quite stable in a rumen environment
same,KIC or HMB in rumen fluid,[3]; [9],60 µM
same,KIC or HMB in rumen fluid,[3]; [10],76 µM
same,KIC or HMB in rumen fluid,[3]; [11],81 µM
same,KIC or HMB in rumen fluid,[3]; [12],71 µM
same,KIC or HMB in rumen fluid,[3]; [13],74 µM
same,KIC or HMB in rumen fluid,[3]; [14],74 µM
same,improving growth metabolism compared with KIC (in words),domestic animals [4],more effective for improving growth metabolism of domestic animals
same,lean tissue development (in words),domestic animals [4],increase markedly the development of lean tissue
same,Feed/gain,male leghorn chicks,2.17
same,Breast muscle,male leghorn chicks,3.00%
same,Gain,male leghorn chicks,229 g
same,"Gain, change from control",male leghorn chicks; 5 weeks,3.3%
same,comparison with KIC in all parameters (in words),male leghorn chicks; 5 weeks,superior in all parameters measured
same,performance of growing chicks (in words),male leghorn chicks; 5 weeks,increased performance of growing chicks by increasing the rate of growth and by making more efficient use of feed for growth
same,"Breast muscle, change from control",male leghorn chicks; 5 weeks,5.5%
same,"Feed/gain, change from control",male leghorn chicks; 5 weeks,-5.8%
same,"Red blood cell titer, change from control",pig red blood cells,107%
same,Red blood cell titer,pig red blood cells,3.25 dilution
CC(C)(O)CC(=O)O [Na-HMB],hygroscopicity (in words),[5],more hydroscopic than Ca-HMB
"CC(C)CC(=O)C(=O)O [KIC, α-keto-isocaproic acid, reference compound]",effects on the immune system (in words),"domestic animals [6]; U.S. Pat. No. 4,835,185",some apparently beneficial effects on the immune system
same,"cholesterol in meat, milk and eggs (in words)","domestic animals [6]; U.S. Pat. Nos. 4,760,090 and 4,760,531","cholesterol reduction in meat, milk and eggs"
same,consistency of beneficial effects (in words),"domestic animals [6]; domestic animals, particularly ruminants",not consistently obtainable
same,milk production (in words),"domestic animals [6]; lactating domestic animals, such as dairy cattle, U.S. Pat. No. 4,758,593",the quantity of milk produced may be increased
same,egg production (in words),"domestic animals [6]; laying chickens, U.S. Pat. No. 4,760,531",can also sometimes be increased
same,wool production (in words),"domestic animals [6]; mature sheep, U.S. Pat. No. 4,760,090",the amount of wool produced may also be increased
same,rates of weight gain and/or feed efficiencies (in words),"domestic animals [6]; milligram amounts of KIC, U.S. Pat. Nos. 4,760,090 and 4,883,817",some increases in the rates of weight gain and/or feed efficiencies have been obtained
same,muscle growth (in words),domestic animals [6]; previous research,generally has not been found to stimulate muscle growth
same,fat deposition (in words),"domestic animals [6]; sheep, previous research",decrease fat deposition
same,stability in rumen environment (in words),[3],rapidly destroyed by the rumen bacteria
same,KIC or HMB in rumen fluid,[3]; [9],30 µM
same,KIC or HMB in rumen fluid,[3]; [10],15 µM
same,KIC or HMB in rumen fluid,[3]; [11],4 µM
same,KIC or HMB in rumen fluid,[3]; [12],2 µM
same,KIC or HMB in rumen fluid,[3]; [13],2 µM
same,KIC or HMB in rumen fluid,[3]; [14],1 µM
same,accumulation of body fat (in words),domestic animals [4],slight tending for KIC to reduce the accumulation of body fat
same,lean tissue development (in words),domestic animals [4],not obtainable with KIC
same,rumen destruction (in words),[7],subject to partial rumen destruction
same,Feed/gain,male leghorn chicks,2.24
same,Breast muscle,male leghorn chicks,2.94%
same,Gain,male leghorn chicks,229 g
same,"Gain, change from control",male leghorn chicks; 5 weeks,3.3%
same,"Breast muscle, change from control",male leghorn chicks; 5 weeks,3.5%
same,"Feed/gain, change from control",male leghorn chicks; 5 weeks,-2.5%
same,"Red blood cell titer, change from control",pig red blood cells,68%
same,Red blood cell titer,pig red blood cells,2.65 dilution
same,amount of KIC required relative to nutritionally required amount of leucine,[8],two to three
